Converted amounts (≈) assume the structure as drawn.

This note sets out measurements from ChEMBL document CHEMBL5321279 (J Med Chem, 2023).

Data set [1] in a line: Stability of compound in human gastrointestinal S9 fraction assessed as half life at pH 7.4 measured upto 120 mins by LC-MS/MS analysis. The data set is classed as ADME, subcellular, Gastrointestinal tract.
Data set [2] can be described thus: Stability of compound in cynomolgus monkey gastrointestinal S9 fraction assessed as half life at pH 7.4 measured upto 120 mins by LC-MS/MS analysis. The data set is classed as ADME, subcellular, Macaca fascicularis, Gastrointestinal tract.
Data set [3] can be described thus: Aqueous stability of the compound assessed as compound remaining at pH 2 measured at 24 hrs by UPLC analysis. The data set is classed as physicochemical. As to conditions: aqueous solution, read-out: Stability.
A short description of data set [4]: Stability of compound in cynomolgus monkey liver S9 fraction assessed as half life at pH 7.4 measured upto 90 mins by LC-MS/MS analysis. The data set is classed as ADME, subcellular, Macaca fascicularis.
Data set [5] can be described thus: Stability of compound in cynomolgus monkey plasma assessed as half life measured upto 4 hrs by LC-MS/MS analysis. The data set is classed as ADME, cell-free, Macaca fascicularis.
A short description of data set [6]: Apparent permeability of the compound from apical to basolateral side in human Caco-2 cells incubated for 2 hrs by LC-MS/MS analysis. The data set is classed as ADME, cell-based. To be noted: for Papp A→B at 2 h: Caco-2. On the technique in general: Passage across Caco-2 layers is used to estimate intestinal permeability.
Data set [7] is described as follows: Stability of compound in rat gastrointestinal S9 fraction assessed as half life at pH 7.4 measured upto 120 mins by LC-MS/MS analysis. The data set is classed as ADME, subcellular, Gastrointestinal tract.
A short description of data set [8]: Aqueous stability of the compound assessed as compound remaining at pH 7 measured at 24 hrs by UPLC analysis. The data set is classed as physicochemical. To be noted: aqueous solution, read-out: Stability.
The nature of data set [9]: Stability of compound in rat liver S9 fraction assessed as half life at pH 7.4 measured upto 90 mins by LC-MS/MS analysis. The data set is classed as ADME, subcellular.
A short description of data set [10]: Thermodynamic aqueous solubility at pH 7 measured at 24 hrs by UPLC analysis. The data set is classed as physicochemical. As to conditions: aqueous solution, read-out: Therm_solubility.
Data set [11] can be described thus: Stability of compound in dog gastrointestinal S9 fraction assessed as half life at pH 7.4 measured upto 120 mins by LC-MS/MS analysis. The data set is classed as ADME, subcellular, Canis lupus familiaris, Gastrointestinal tract.
Data set [12] is described as follows: Thermodynamic aqueous solubility at pH 2 measured at 72 hrs by UPLC analysis. The data set is classed as physicochemical. As to conditions: aqueous solution, read-out: Therm_solubility.
Data set [13] is described as follows: Stability of compound in human plasma assessed as half life measured upto 4 hrs by LC-MS/MS analysis. The data set is classed as ADME, cell-free.
Data set [14] in a line: Efflux ratio of permeability in human Caco-2 cells from basolateral to apical side over apical to basolateral side in human Caco-2 cells incubated for 2 hrs by LC-MS/MS analysis. To be noted: caco-2, 2 h. The data set is classed as ADME, cell-based.
Data set [15] in a line: Stability of compound in rat plasma assessed as half life measured upto 4 hrs by LC-MS/MS analysis. The data set is classed as ADME, cell-free.
Data set [16] is described as follows: Stability of compound in dog plasma assessed as half life measured upto 4 hrs by LC-MS/MS analysis. The data set is classed as ADME, cell-free, Canis lupus familiaris.
Data set [17] in a line: Stability of compound in human liver S9 fraction assessed as half life at pH 7.4 measured upto 90 mins by LC-MS/MS analysis. The data set is classed as ADME, subcellular.
Data set [18] is described as follows: Lipophilicity, logD of compound. The data set is classed as physicochemical. To be noted: octanol/water.
Data set [19] in a line: Stability of compound in dog liver S9 fraction assessed as half life at pH 7.4 measured upto 90 mins by LC-MS/MS analysis. The data set is classed as ADME, subcellular, Canis lupus familiaris.
Data set [20] is described as follows: AUC(0 to 24 hrs) in SARS-CoV-2 infected mouse assessed as prodrug conversion (2R,3R,4S,5R)-2-(4-aminopyrrolo[2,1-f][1,2,4]triazin-7-yl)-3,4-dihydroxy-5-(hydroxymethyl)tetrahydrofuran-2-carbonitrile at 30 mg/kg, po BID measured after 4 days by LC-MS/MS analysis. More on the design: dose 30 mg/kg, time 4 day, route po. The data set is classed as ADME, organism-based. To be noted: in vivo, 96 h.

The nature of data set [21]: Cmax in mouse infected with SARS-CoV-2 assessed as prodrug conversion by measuring (2R,3R,4S,5R)-2-(4-aminopyrrolo[2,1-f][1,2,4]triazin-7-yl)-3,4-dihydroxy-5-(hydroxymethyl)tetrahydrofuran-2-carbonitrile at 30 mg/kg, po BID measured after 4 days by LC-MS/MS analysis. The data set is classed as ADME, organism-based. More on the design: dose 30 mg/kg, time 4 day, route po. As to conditions: in vivo, 96 h.

Data set [22] is described as follows: Cmax in ferret infected with SARS-CoV-2 assessed as prodrug conversion by measuring (2R,3R,4S,5R)-2-(4-aminopyrrolo[2,1-f][1,2,4]triazin-7-yl)-3,4-dihydroxy-5-(hydroxymethyl)tetrahydrofuran-2-carbonitrile at 10 mg/kg, po BID measured after 4 days by LC-MS/MS analysis. The data set is classed as ADME, organism-based, Mustela putorius furo. Also on record: time 4 day, dose 10 mg/kg, route po. To be noted: in vivo, 96 h.

The nature of data set [23]: Prodrug conversion in SARS-CoV-2 infected in mouse assessed as (2R,3R,4S,5R)-2-(4-aminopyrrolo[2,1-f][1,2,4]triazin-7-yl)-3,4-dihydroxy-5-(hydroxymethyl)tetrahydrofuran-2-carbonitrile mediated log10 reduction of genomic RNA in lung at 30 mg/kg, po BID measured after 4 days by RT-qPCR analysis. As to conditions: in vivo, 96 h, time 4 day. The data set is classed as ADME, organism-based. (In general: Quantitative PCR measures a nucleic acid by following its amplification.)

Data set [24] in a line: AUC(0 to 24 hrs) in ferret infected with SARS-CoV-2 assessed as prodrug conversion by measuring (2R,3R,4S,5R)-2-(4-aminopyrrolo[2,1-f][1,2,4]triazin-7-yl)-3,4-dihydroxy-5-(hydroxymethyl)tetrahydrofuran-2-carbonitrile at 10 mg/kg, po BID measured after 4 days by LC-MS/MS analysis. Also on record: dose 10 mg/kg, time 4 day, route po. To be noted: in vivo, 96 h. The data set is classed as ADME, organism-based, Mustela putorius furo.

Data set [25] in a line: Prodrug conversion in SARS-CoV-2 infected in ferret assessed as (2R,3R,4S,5R)-2-(4-aminopyrrolo[2,1-f][1,2,4]triazin-7-yl)-3,4-dihydroxy-5-(hydroxymethyl)tetrahydrofuran-2-carbonitrile mediated log10 reduction of genomic RNA at 10 mg/kg, po BID measured after 4 days by RT-qPCR analysis. The data set is classed as ADME, organism-based, Mustela putorius furo. To be noted: in vivo, 96 h, time 4 day.

A short description of data set [26]: Lipophilicity, logP of compound. The data set is classed as physicochemical. As to conditions: octanol/water.
The nature of data set [27]: Cytotoxicity against human NHBE-T cells assessed as reduction in cell growth measured after 5 days by CellTiter-Glo assay. The data set is classed as toxicity, cell-based. To be noted: nhbe-t, 120 h, time 5 day.
Data set [28] relates to Hepatocyte. The data set can be described thus: Cytotoxicity against human primary hepatocytes assessed as reduction in cell growth measured after 5 days by CellTiter-Glo assay. The data set is classed as toxicity, cell-based. As to conditions: hepatocytes, 120 h, time 5 day. Background: ATP-based viability assays read luminescence as a measure of living cells.
The test system of data set [29] is HepG2. As to the kind of experiment: Cytotoxicity against human HepG2 cells assessed as reduction in cell growth measured after 5 days by CellTiter-Glo assay. The data set is classed as toxicity, cell-based. As to conditions: hepg2, 120 h, time 5 day.
Data set [30] has as its system PBMC. The data set can be described thus: Cytotoxicity against quiescent human PBMC cells assessed as reduction in cell growth measured after 5 days by CellTiter-Glo assay. The data set is classed as toxicity, cell-based. To be noted: pbmc, 120 h, time 5 day.
For data set [31], the system named is PBMC. The data set can be described thus: Cytotoxicity against stimulated human PBMC cells assessed as reduction in cell growth measured after 5 days by CellTiter-Glo assay. The data set is classed as toxicity, cell-based. As to conditions: pbmc, 120 h, time 5 day.
The test system of data set [32] is MT4. The data set can be described thus: Cytotoxicity against human MT4 cells assessed as reduction in cell growth measured after 5 days by CellTiter-Glo assay. To be noted: mt4, 120 h, time 5 day. The data set is classed as toxicity, cell-based.
The subject of data set [33] is MRC5. The data set can be described thus: Cytotoxicity against human MRC5 cells assessed as reduction in cell growth measured after 5 days by CellTiter-Glo assay. The data set is classed as toxicity, cell-based. To be noted: mrc5, 120 h, time 5 day.
In data set [34] the test system is Huh-7. As to the kind of experiment: Cytotoxicity against human Huh-7 cells assessed as reduction in cell growth measured after 5 days by CellTiter-Glo assay. The data set is classed as toxicity, cell-based. As to conditions: huh-7, 120 h, time 5 day.
Data set [35] has as its system PC-3. As to the kind of experiment: Cytotoxicity against human PC-3 cells assessed as reduction in cell growth measured after 5 days by CellTiter-Glo assay. The data set is classed as toxicity, cell-based. As to conditions: pc-3, 120 h, time 5 day.

`CC(=O)OC[C@H]1O[C@@](C#N)(c2ccc3c(N)ncnn23)[C@H](OC(C)=O)[C@@H]1OC(C)=O`: the half-life (commonly the time needed for the level to fall by half in the phase considered) in data set [1] was under 2 min; in [2], under 2 min; in data set [5], 9.2 min; in [7], over 2 min; in data set [11], 16 min; in data set [13], 4.7 min. The half-life in data set [15] was under 2 min; in data set [16], 111 min. Further, the remaining at 24 h in [3] came out at 82%; in [8], 79%. For the same compound, the half-life at […] in [4], in [9], in data set [17] and in data set [19] was under 2 min in each case. In addition, in data set [6], the apical-to-basolateral permeability (Papp A→B) (commonly the apparent permeability from the apical to the basolateral side of a cell layer) at 2 h is 4 ×10⁻⁶ cm/s. Further, the solubility thermodynamic at 24 h in data set [10] is 1400 µg/mL (≈ 3.35 mM). For the same compound, the solubility thermodynamic at 72 h in data set [12] was at least 40000 µg/mL. In data set [14], the Ratio is reported as 3. Moreover, the logD (commonly lipophilicity at a set pH, counting ionised and neutral species) in data set [18] is 1.5.

`CC(=O)OC[C@H]1O[C@@](C#N)(c2ccc3c(N)ncnn23)[C@H](O)[C@@H]1O`: the half-life in [1] is 28 min; in [2], 38 min; in [5] it was 146 min; in data set [7], over 2 min; in [11] it was 226 min; in data set [13], 70 min. Moreover, the figures for the half-life in data set [15] and in data set [16] were 3 min and 564 min, respectively. For the same compound, the remaining at 24 h was found to be 89% in data set [3] and 96% in data set [8]. Besides, the half-life at […] came to 5.3 min in data set [4], 10 min in data set [9], 19 min in data set [17] and 25 min in [19]. Further, the Papp A→B at 2 h in data set [6] came to 1.4 ×10⁻⁶ cm/s. For the same compound, the solubility thermodynamic at 24 h in data set [10] is 1000 µg/mL (≈ 3 mM). Further, in data set [14], the Ratio is listed as 0.5. This compound also showed a logD in data set [18] of under 0.3.

Turning to `CC(C)C(=O)OC[C@H]1O[C@@](C#N)(c2ccc3c(N)ncnn23)[C@H](OC(=O)C(C)C)[C@@H]1OC(=O)C(C)C`, the AUC (as a rule, concentration integrated over time) in [20] worked out at 95 µM·h; in data set [24], 54 µM·h. Further, the half-life in [1] is under 2 min; in data set [2] it was under 2 min; in data set [5], 7.2 min; in [7], over 2 min; in data set [11] it was under 2 min; in [13], 5.5 min. The half-life was under 2 min in [15] and 182 min in data set [16]. For the same compound, the values for the remaining at 24 h in data set [3] and in [8] were at least 96% and at least 98%, respectively. Besides, the half-life at […] in data set [4] is under 2 min; in data set [9] it was 2.9 min; in [17] it was under 2 min; in [19] it was under 2 min. The Papp in [6] (caco-2, 2 h) is recorded as 22 10^-6 cm/s. In [10], the solubility thermodynamic at 24 h was under 10 µg/mL. The results for the Cmax in data set [21] and in data set [22] were 13 µM and 5 µM, respectively. For the same compound, the solubility thermodynamic at 72 h in data set [12] worked out at 600 µg/mL (≈ 1.2 mM). The Ratio in data set [14] was under 1. The “log(activity)” value in data set [23] is recorded as -3.29; in data set [25], -1.98. For the same compound, the logD in data set [18] came out at 3.5.

Consider `[N-]=[N+]=N[C@]1(CO)O[C@@H](n2ccc(N)nc2=O)[C@H](O)[C@@H]1O` [4'-AZIDOCYTIDINE], for which the log partition coefficient (logP) (usually a log measure of how a compound divides between an organic and an aqueous phase) in data set [26] is over 2.

`COc1ccc(C[C@H](N)C(=O)N[C@H]2[C@@H](O)[C@H](n3cnc4c(N(C)C)ncnc43)O[C@@H]2CO)cc1` [PUROMYCIN]: the CC50 (commonly the concentration that lowers cell viability or growth by half) was 600 nM in data set [27]; 1100 nM in data set [28]; 780 nM in [29]; 5050 nM in data set [30]; 1100 nM in data set [31]; 120 nM in data set [32]. The half-maximal cytotoxic concentration (CC50) in [33] turned out to be 320 nM; in data set [34], 430 nM; in [35] it was 470 nM.
